Measurements taken from US5506217A, “Phosphonates as anti-cancer agents” (The University of British Columbia, priority 1994, dated 1996).

How the values were obtained:
[1] = test system: DHL4, a human B cell lymphoma; assay: colonogenic cell survival assay; assay type: cell-based; conditions: 120 h, read-out: Colonies formed after 5-days (% of control)
Protocol: (§1) Inhibition of colony formation in soft agar medium (colonogenic cell survival assay) is a more rigorous and direct measurement of cell kill or growth inhibition, and reflects the anti-cancer activity of the test compound. Briefly, tumor cells were cultured in petri dishes in methylcellulose, with or without a phosphonate test compound, and the number of colonies formed during a 5-day incubation period were counted.
(§2) The anti-cancer activity of the phosphonate of the following formula: [drawing 16] against human leukemia and lymphoma was also studied using the colonogenic cell survival assay. DHL4, a human B cell lymphoma; HeL, a human erythroid leukemia: JRT3T3, a human T-cell lymphoma; and KG 1α, a human mycloid leukemia, were evaluated for their sensitivity to the cytotoxic activity of the phosphonate of the above formula (compound VIII).

[2] = test system: HeL, a human erythroid leukemia; assay: colonogenic cell survival assay; assay type: cell-based; conditions: 120 h, read-out: Colonies formed after 5-days (% of control)
Protocol: as §1, §2

[3] = test system: JRT3T3, a human T-cell lymphoma; assay: colonogenic cell survival assay; assay type: cell-based; conditions: 120 h, read-out: Colonies formed after 5-days (% of control)
Protocol: as §1, §2

[4] = test system: KG1α, a human myeloid leukemia; assay: colonogenic cell survival assay; assay type: cell-based; conditions: KG-1a, 120 h, read-out: Colonies formed after 5-days (% of control)
Protocol: as §1, §2

[5] = test system: LLC tumor cells (Lewis Lung carcinoma); assay: colonogenic cell survival assay; assay type: cell-based; conditions: Mus musculus, 120 h, read-out: Colonies formed after 5 days (% of control)
Protocol: as §1
Lewis Lung carcinoma (LLC), a cancer cell linc derived from […] of mice, was evaluated for its sensitivity to the cytotoxic activity of phosphonates of the following structure using the colonogenic cell survival assay (described above): [drawing 19]

[6] = test system: L1210 (B-cell lymphoma) cells; assay: survival of CD1 mice injected with L1210 lymphoma cells; assay type: in vivo; conditions: 10 mg/kg per day IM
Protocol: The effects of phosphonates in a mouse model of lymphoma were also studied. Mice (CD 1) were injected with 1×10^6 L1210 (B-cell lymphoma) cells intraperitoneally. In one group the mice received the phosphonate compound of the following formula at 10 mg/kg per day intramuscularly, while a second group of mice received no treatment: [drawing 18]

[7] = test system: human colorectal cell line (HT-29); assay: HT-29 tumor growth in nude mice; assay type: in vivo; conditions: orally once a day, 5 mg/Kg body weight; HT-29 subcutaneous in nude mice
Protocol: Studies were also performed with nude mice injected with the human colorectal cell line (HT-29) subcutaneously.

B-16/F10 melanoma cells = assay: B-16/F10 melanoma metastasis in C57BL/6 mice; assay type: in vivo; conditions: 10 mg/kg IM (5 days/week for 2 weeks)
Protocol: (§3) Highly metastatic B-16/F10 melanoma cells were injected into the tail veins of female C57BL/6 mice (1×10^5 cells per mouse). Treatment of one group of mice with the phosphonate compound of the above formula (compound VIII), dissolved into 0.5mL ethanol, 0.5 mL cremaphor and 9.0 mL phosphate buffered saline, began three days after the tumor cells were injected. lntramuscular injections of 0.2 mL of the phosphonate emulsion (10 mg/kg/day) were given for 5 days per week for 2 weeks. A second group of mice were treated with Adriamycin (10 mg/kg given intravenously on days 0, 4 and 8) as a known anti-cancer drug control group, while a third group of mice received the vehicle emulsion alone. The mice were examined every day for general health, behaviour and body weight. Counts of metastatic melanomic tumor colonies found in the lungs, general observations of metastasis to distant organs and examination of organs (liver, kidneys, lungs and spleen) were taken at autopsy 4 weeks after treatment.

[8] = body weight and general toxicity in the B-16/F10 melanoma study; assay type: in vivo, C57BL/6 mice; conditions: for Body weight (grams): 10 mg/kg IM (5 days/week for 2 weeks)
Protocol: as §3

[9] = test system: HCT-116 (human rectal cancer); assay: cytotoxicity IC50 (3H-thymidine uptake, colonogenic cell survival and MTT assays); assay type: cell-based
Excerpt: (§4) A combination of ^3 H-Thymidine incorporation assay, colonogenic cell survival assay and MTT assay was used to determine cytotoxicity data of phosphonates in several mouse and human tumor cell lines.

[10] = test system: LLC (mouse Lewis lung carcinoma); assay: as above; assay type: cell-based
Excerpt: as §4

[11] = test system: MCF-7 (human breast cancer); assay: as above; assay type: cell-based; conditions: MCF7
Excerpt: as §4

[12] = test system: MeWo (human melanoma cancer); assay: as above; assay type: cell-based
Excerpt: as §4

[13] = test system: P388 (mouse monocytic leukemia); assay: as above; assay type: cell-based
Excerpt: as §4

[14] = test system: P388 DR (drug resistant P388); assay: as above; assay type: cell-based; conditions: Mus musculus
Excerpt: as §4

[15] = test system: RPMI (advanced human melanoma); assay: as above; assay type: cell-based
Excerpt: as §4

[16] = test system: WEHI-3B (mouse granulocytic leukemia); assay: as above; assay type: cell-based; conditions: WEHI3B
Excerpt: as §4

With `CCCCCCCCCCCCCCCCOCC(CCP(=O)([O-])OCC[N+](C)(C)C)OC` (centres unmarked) [compound VIII] as the compound, how does the activity at 1.25 µM ([1]; 1.25 μM) read?
The activity at 1.25 µM was 76 ± 7%.

What about the activity at 2.5 µM ([1]; 2.5 μM) of the same compound?
The activity at 2.5 µM was 61 ± 5%.

What about the activity at 5 µM ([1]; 5 μM) of the same compound?
Its activity at 5 µM is 42 ± 6%.

And the activity at 10 µM ([1]; 10 μM)?
The activity at 10 µM was 18 ± 4%.

What about the activity at 20 µM ([1]; 20 μM) of the same compound?
Its activity at 20 µM is 5 ± 1%.

And the activity at 40 µM ([1]; 40 μM)?
Its activity at 40 µM is 0%.

And the activity at 1.25 µM ([2]; 1.25 μM)?
Its activity at 1.25 µM is 91 ± 8%.

And the activity at 2.5 µM ([2]; 2.5 μM)?
Its activity at 2.5 µM is 72 ± 5%.

And the activity at 5 µM ([2]; 5 μM)?
The activity at 5 µM was 58 ± 4%.

What about the activity at 10 µM ([2]; 10 μM) of the same compound?
The activity at 10 µM was 26 ± 5%.

And the activity at 20 µM ([2]; 20 μM)?
Its activity at 20 µM is 12 ± 3%.

What about the activity at 40 µM ([2]; 40 μM) of the same compound?
Its activity at 40 µM is 1 ± 0.5%.

What about the activity at 1.25 µM ([3]; 1.25 μM) of the same compound?
Its activity at 1.25 µM is 87 ± 6%.

And the activity at 2.5 µM ([3]; 2.5 μM)?
Its activity at 2.5 µM is 65 ± 7%.

And the activity at 5 µM ([3]; 5 μM)?
Its activity at 5 µM is 34 ± 5%.

And the activity at 10 µM ([3]; 10 μM)?
The activity at 10 µM was 20 ± 3%.

And the activity at 20 µM ([3]; 20 μM)?
The activity at 20 µM was 8 ± 2%.

What about the activity at 40 µM ([3]; 40 μM) of the same compound?
The activity at 40 µM was 3 ± 1%.

And the activity at 1.25 µM ([4]; 1.25 μM)?
Its activity at 1.25 µM is 78 ± 8%.

What about the activity at 2.5 µM ([4]; 2.5 μM) of the same compound?
Its activity at 2.5 µM is 56 ± 6%.

What about the activity at 5 µM ([4]; 5 μM) of the same compound?
Its activity at 5 µM is 41 ± 4%.

What about the activity at 10 µM ([4]; 10 μM) of the same compound?
Its activity at 10 µM is 15 ± 3%.

What about the activity at 20 µM ([4]; 20 μM) of the same compound?
Its activity at 20 µM is 7 ± 1%.

And the activity at 40 µM ([4]; 40 μM)?
Its activity at 40 µM is 4 ± 1%.

What about the activity at 1.25 µM ([5]; 1.25 μM) of the same compound?
The activity at 1.25 µM was 97 ± 9%.

And the activity at 2.5 µM ([5]; 2.5 μM)?
The activity at 2.5 µM was 81 ± 6%.

And the activity at 5 µM ([5]; 5 μM)?
Its activity at 5 µM is 67 ± 5%.

And the activity at 10 µM ([5]; 10 μM)?
Its activity at 10 µM is 53 ± 4%.

What about the activity at 20 µM ([5]; 20 μM) of the same compound?
Its activity at 20 µM is 37 ± 5%.

And the activity at 40 µM ([5]; 40 μM)?
The activity at 40 µM was 19 ± 6%.

And the “% Survival” value ([6]; day 0 after injection of L1210 cells)?
The value was 100%.

What about the “% Survival” value ([6]; day 7 after injection of L1210 cells) of the same compound?
The value was 100%.

What about the “% Survival” value ([6]; day 8 after injection of L1210 cells) of the same compound?
The value was 100%.

And the “% Survival” value ([6]; day 19 after injection of L1210 cells)?
Its value is 100%.

What about the “% Survival” value ([6]; day 21 after injection of L1210 cells) of the same compound?
Its value is 100%.

What about the “deaths among treated animals (in words)” value ([6]; up to 21 days of observation) of the same compound?
The value was “None of the phosphonate-treated (compound VIII) animals died”.

And the “retardation of tumor growth” value [7]?
The value was 30-40%.

And the “melanomic metastasis to distant organs at autopsy (in words)” value (B-16/F10 melanoma cells)?
The value was “no traces of melanomic metastasis to distant organs were evident in five of six animals”.

What about the “Melanomic tumor colonies found in the lungs at autopsy” value (“Melanomic tumor colonies found” below) (B-16/F10 melanoma cells; Mouse 1) of the same compound?
Its value is 2.

And the “Melanomic tumor colonies found” value (B-16/F10 melanoma cells; Mouse 2)?
Its value is 0.

And the “Melanomic tumor colonies found” value (B-16/F10 melanoma cells; Mouse 3)?
The value was 1.

What about the “Melanomic tumor colonies found” value (B-16/F10 melanoma cells; Mouse 4) of the same compound?
Its value is 0.

What about the “Melanomic tumor colonies found” value (B-16/F10 melanoma cells; Mouse 5) of the same compound?
Its value is 0.

What about the “Melanomic tumor colonies found” value (B-16/F10 melanoma cells; Mouse 6) of the same compound?
The value was 3.

And the “Body weight (grams)” value ([8]; Mouse 1, day 0)?
Its value is 19 grams.

And the “Body weight (grams)” value ([8]; Mouse 1, day 12)?
Its value is 20 grams.

What about the “Body weight (grams)” value ([8]; Mouse 1, day 26) of the same compound?
The value was 23 grams.

What about the “Body weight (grams)” value ([8]; Mouse 2, day 0) of the same compound?
Its value is 19 grams.

And the “Body weight (grams)” value ([8]; Mouse 2, day 12)?
The value was 20 grams.

What about the “Body weight (grams)” value ([8]; Mouse 2, day 26) of the same compound?
The value was 22 grams.

And the “Body weight (grams)” value ([8]; Mouse 3, day 0)?
The value was 19 grams.

What about the “Body weight (grams)” value ([8]; Mouse 3, day 12) of the same compound?
Its value is 21 grams.

What about the “Body weight (grams)” value ([8]; Mouse 3, day 26) of the same compound?
Its value is 24 grams.

What about the “Body weight (grams)” value ([8]; Mouse 4, day 0) of the same compound?
The value was 20 grams.

And the “Body weight (grams)” value ([8]; Mouse 4, day 12)?
Its value is 21 grams.

What about the “Body weight (grams)” value ([8]; Mouse 4, day 26) of the same compound?
The value was 25 grams.

And the “Body weight (grams)” value ([8]; Mouse 5, day 0)?
The value was 19 grams.

And the “Body weight (grams)” value ([8]; Mouse 5, day 12)?
Its value is 21 grams.

And the “Body weight (grams)” value ([8]; Mouse 5, day 26)?
The value was 24 grams.

What about the “Body weight (grams)” value ([8]; Mouse 6, day 0) of the same compound?
The value was 20 grams.

And the “Body weight (grams)” value ([8]; Mouse 6, day 12)?
The value was 21 grams.

And the “Body weight (grams)” value ([8]; Mouse 6, day 26)?
Its value is 24 grams.

And the “toxicity (weight, behaviour and appearance of the mice; in words)” value ([8]; intramuscularly, 10 mg/kg for 2 weeks)?
Its value is “not toxic”.

What about the IC50 [9] of the same compound?
The IC50 was 12 µM.

And the IC50 [10]?
Its IC50 is 10.6 µM.

And the IC50 [11]?
The IC50 was 35.3 µM.

And the IC50 [12]?
The IC50 was 15.7 µM.

What about the IC50 [13] of the same compound?
The IC50 was 4.5 µM.

What about the IC50 [14] of the same compound?
Its IC50 is 5 µM.

And the IC50 [15]?
Its IC50 is 9 µM.

And the IC50 [16]?
The IC50 was 2.5 µM.
